What was measured:
eosinophils = test: Eosinophil shape change assay with human plasma; type: cell-based; settings: Homo sapiens, Eosinophil, human plasma (50%), PGD2 100 nM activation, antagonistic activity
Method in brief: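 Human polymorphonuclear cells stained with anti-CD49d-APC, combined with compound-preincubated human plasma (50% of final volume, 4×10^6 cells/ml) for 10 min at 37° C., then stimulated 5 min with 100 nM PGD2 and fixed. Flow cytometry scored percent eosinophils with increased forward scatter.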

hCRTH2 receptor = hCRTH2 receptor (Homo sapiens (Human), UniProt Q9Y5Y4); test: hCRTH2 receptor membranes radioligand (3H-PGD2) displacement assay; type: binding; settings: 3H-PGD2 radioligand displacement, HEK293-hCRTH2 membranes
hCRTH2 receptor, sequence (Q9Y5Y4 whole entry): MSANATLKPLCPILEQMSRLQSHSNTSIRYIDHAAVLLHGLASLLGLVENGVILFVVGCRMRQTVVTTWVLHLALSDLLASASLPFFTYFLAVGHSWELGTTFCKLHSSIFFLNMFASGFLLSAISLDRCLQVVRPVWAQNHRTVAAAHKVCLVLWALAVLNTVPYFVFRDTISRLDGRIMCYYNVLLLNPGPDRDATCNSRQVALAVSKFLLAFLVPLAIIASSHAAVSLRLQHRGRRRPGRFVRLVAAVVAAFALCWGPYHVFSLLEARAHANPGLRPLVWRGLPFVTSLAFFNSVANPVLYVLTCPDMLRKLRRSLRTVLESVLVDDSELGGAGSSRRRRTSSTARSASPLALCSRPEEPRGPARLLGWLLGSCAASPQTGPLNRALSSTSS
Method in brief: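 HEK293-hCRTH2 membranes, 20 μg/well; 3H-PGD2 added at 2.5 nM; binding buffer 50 mM Tris, 10 mM MnCl2, 1 mM EDTA, pH 7.0; 90 min RT; GF/C filtration, scintillation count. Nonspecific binding: PGD2 at […].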

Structure (SMILES)	IC50 (eosinophils)	IC50 (hCRTH2 receptor)
CCOc1cc(CC(=O)O)ccc1-c1ccc(F)c2c1CN(C(=O)OCc1ccc(F)cc1)CC2 [Example 404, 8-(4-Carboxymethyl-2-ethoxy-phenyl)-5-fluoro-3,4-dihydro-1H-isoquinoline-2-carboxylic acid 4-fluoro-benzyl ester]	10 nM	2.3 nM
CCOc1cc(CC(=O)O)ccc1-c1ccc(F)c2c1CN(C(=O)OCc1cccc(F)c1)CC2 [Example 405, 8-(4-Carboxymethyl-2-ethoxy-phenyl)-5-fluoro-3,4-dihydro-1H-isoquinoline-2-carboxylic acid 3-fluoro-benzyl ester]	20 nM	2.7 nM
CCOc1cc(CC(=O)O)ccc1-c1ccc(F)c2c1CN(C(=O)OCc1ccccc1F)CC2 [Example 406, 8-(4-Carboxymethyl-2-ethoxy-phenyl)-5-fluoro-3,4-dihydro-1H-isoquinoline-2-carboxylic acid 2-fluoro-benzyl ester]	10 nM	7.7 nM
CCOc1cc(CC(=O)O)ccc1-c1ccc(F)c2c1CN(C(=O)OCc1cc(F)ccc1F)CC2 [Example 407, 8-(4-Carboxymethyl-2-ethoxy-phenyl)-5-fluoro-3,4-dihydro-1H-isoquinoline-2-carboxylic acid 2,5-difluoro-benzyl ester]	9 nM	2.1 nM
CCOc1cc(CC(=O)O)ccc1-c1ccc(F)c2c1CN(C(=O)OCc1cc(Cl)ccc1F)CC2 [Example 408, 8-(4-Carboxymethyl-2-ethoxy-phenyl)-5-fluoro-3,4-dihydro-1H-isoquinoline-2-carboxylic acid 5-chloro-2-fluoro-benzyl ester]	8 nM	2 nM
CCOc1cc(CC(=O)O)ccc1-c1ccc(F)c2c1CN(C(=O)OCc1ccc(F)cc1F)CC2 [Example 409, 8-(4-Carboxymethyl-2-ethoxy-phenyl)-5-fluoro-3,4-dihydro-1H-isoquinoline-2-carboxylic acid 2,4-difluoro-benzyl ester]	5 nM	3.9 nM
CCOc1cc(CC(=O)O)ccc1-c1ccc(F)c2c1CN(C(=O)OCc1ccccc1)CC2 [Example 410, 8-(4-Carboxymethyl-2-ethoxy-phenyl)-5-fluoro-3,4-dihydro-1H-isoquinoline-2-carboxylic acid benzyl ester]	13 nM	26 nM
O=C(O)Cc1ccc(-c2ccc(F)c3c2CN(C(=O)OCc2ccccc2)CC3)c(OCC(F)(F)F)c1 [Example 411, 8-[4-Carboxymethyl-2-(2,2,2-trifluoro-ethoxy)-phenyl]-5-fluoro-3,4-dihydro-1H-isoquinoline-2-carboxylic acid benzyl ester]	13 nM	1 nM
O=C(O)Cc1ccc(OC(F)F)c(-c2ccc(F)c3c2CN(C(=O)OCc2ccccc2)CC3)c1 [Example 412, 8-(5-Carboxymethyl-2-difluoromethoxy-phenyl)-5-fluoro-3,4-dihydro-1H-isoquinoline-2-carboxylic acid benzyl ester]	47 nM	1.8 nM
O=C(O)Cc1ccc(OCC(F)F)c(-c2ccc(F)c3c2CN(C(=O)OCc2ccccc2)CC3)c1 [Example 413, 8-[5-Carboxymethyl-2-(2,2-difluoro-ethoxy)-phenyl]-5-fluoro-3,4-dihydro-1H-isoquinoline-2-carboxylic acid benzyl ester]	44 nM	0.8 nM
CC(C)(C)Oc1ccc(CC(=O)O)cc1-c1ccc(F)c2c1CN(C(=O)OCc1ccccc1)CC2 [Example 419, 8-(2-tert-Butoxy-5-carboxymethyl-phenyl)-5-fluoro-3,4-dihydro-1H-isoquinoline-2-carboxylic acid benzyl ester]	35 nM	2.8 nM
CN(C)c1ccc(CC(=O)O)cc1-c1ccc(F)c2c1CN(C(=O)OCc1ccccc1)CC2 [Example 420, 8-(5-Carboxymethyl-2-dimethylamino-phenyl)-5-fluoro-3,4-dihydro-1H-isoquinoline-2-carboxylic acid benzyl ester]	17 nM	2.4 nM
O=C(O)Cc1ccc(OCC(F)(F)F)c(-c2ccc(F)c3c2CN(C(=O)OCc2ccccc2)CC3)c1 [Example 421, 8-[5-Carboxymethyl-2-(2,2,2-trifluoro-ethoxy)-phenyl]-5-fluoro-3,4-dihydro-1H-isoquinoline-2-carboxylic acid benzyl ester]	16 nM	3.8 nM
O=C(O)Cc1ccc(OCCF)c(-c2ccc(F)c3c2CN(C(=O)OCc2ccccc2)CC3)c1 [Example 422, 8-[5-Carboxymethyl-2-(2-fluoro-ethoxy)-phenyl]-5-fluoro-3,4-dihydro-1H-isoquinoline-2-carboxylic acid benzyl ester]	8 nM	8.5 nM
CC(C)Oc1ccc(CC(=O)O)cc1-c1ccc(C#N)c2c1CN(C(=O)OCc1ccccc1)CC2 [Example 431, 8-(5-Carboxymethyl-2-isopropoxy-phenyl)-5-cyano-3,4-dihydro-1H-isoquinoline-2-carboxylic acid benzyl ester]	47 nM	1.4 nM
CCOc1ccc(CC(=O)O)cc1-c1ccc(F)c2c1CN(C(=O)NCc1ccccc1)CC2 [Example 438, [3-(2-Benzylcarbamoyl-5-fluoro-1,2,3,4-tetrahydro-isoquinolin-8-yl)-4-ethoxy-phenyl]-acetic acid]	14 nM	3.7 nM

Reference: patent US9255090B2, “Heterocyclyl derivatives and their use as prostaglandin D2 receptor modulators” (Actelion Pharmaceuticals Ltd., priority 2012, dated 2016)
